Results from patent US5258406A, “Sulfonimidamides” (priority 1992, dated 1993).
Where two headings read alike, the source gives them in different places.

Key:
Assay type in all cases: in vivo
[1] = system: LX1
Method: (§1) The compounds were tested in C3H mice bearing a 6C3HED lymphosarcoma, also known as the Gardner lymphosarcoma (GLS), and in a variety of human tumor xenografts in CD1 nu/nu mice, including CX-1, LX-1, HXGC3, and VRC5. The 6C3HED lymphosarcoma was obtained from the Division of Cancer Treatment, National […] Institute, Tumor Bank, maintained at E. G. and G. Mason Research (Worcester, Mass.). The CX-1 human colon carcinoma and the LX-1 human lung carcinoma xenografts were obtained from the National Cancer Institute. The HXGC3 and VRC5 human colon xenografts were obtained from Dr. P. J. Houghton, St. Jude Children's Hospital in Memphis (see Br. J. Cancer, 37, 213 (1978)). First passage tumor was stored in liquid nitrogen using standard techniques. The transplanted tumor was reestablished from the Tumor Bank every six months or as needed. The tumor was maintained by serial passage twice weekly in C3H mice.
(§2) In the procedure the tumor was removed from passage animals and minced into 1- to 3-mm square fragments using sterile techniques. Tumor pieces were checked for sterility using both Antibiotic Medium 1 and Brain Heart Infusion (Difco, Detroit, Mich.). Recipient mice were shaved and tumor pieces were implanted subcutaneously in the auxiliary region by trocar. Drug therapy on the appropriate schedule was initiated on the day after tumor implant for 6C3HED and after a seven (7) day delay for xenografts (or other delay as noted in Table 2). The compound being tested was mixed with 2.5% Emulphor EL620 from GAF Corporation (1:40 dilution in saline). Food and water were provided ad libitium. The drug was administered orally in 0.5 ml of 2.5% Emulphor (unless otherwise indicated). The tumor was measured the day after treatment ended with two dimensional measurements (width and length) of the tumor taken using automated digital calipers interfaced to a microcomputer. Approximate weight for the tumor was calculated using the following formula [Worzalla, J. F., et al., Invest. New Drugs, 8, 241 (1990], (tumor weight in mg)=(width in mm)^2 ×(length in mm)/2.
(§3) At least one control group of an equal number of mice was treated with the same volume of 2.5% Emulphor only. The percent inhibition was determined by subtracting the ratio of the mean tumor size of the test group relative to the control group from one and multiplying the result times 100.
(§4) The results of several experiments in mice bearing a 6C3HED lymphosarcoma (or other tumor where indicated) when the indicated compounds were administered are provided in Table 2. In Table 2, column 1 gives the Example number of the compound used, column 2 lists the dose level in mg/kg, column 3 provides the percent inhibition of tumor growth, column 4 gives the number of mice which died relative to the total number of animals in the group, column 5 gives the method of administration of the compound, and column 6 gives the dosage schedule. The protocol used with other tumors was the same as with the 6C3HED lymphosarcoma.

[2] = system: HC1
Method: as §1, §2, §3, §4

[3] = system: 6C3HED lymphosarcoma; test: animal or person
[4] = system: VRC5; conditions: oral, 50 mg/kg, BIDX 10
Method: as §1, §2, §3, §4

[5] = oral, 3 mg/kg, BIDX 14, from day 7 after implant
[6] = oral, 500 mg/kg, BIDX 14, from day 14 after implant
[7] = oral, 150 mg/kg, Days 1, 3, 5, 7

Cc1ccc(S(=N)(=O)NC(=O)Nc2ccc(Cl)cc2)cc1 (centres unmarked) [Example 2, N-[[(4-chlorophenyl)amino]carbonyl]-4-methylbenzenesulfonimidamide]
% inhibition of tumor growth [1, 5]: 24%
Tox/Tot (mice which died / total) [1, 5]: 0/10
Tox/Tot (mice which died / total) ([1]; oral, 10 mg/kg, BIDX 14, from day 7 after implant): 0/10
Tox/Tot (mice which died / total) ([1]; oral, 30 mg/kg, BIDX 14, from day 7 after implant): 0/10
Tox/Tot (mice which died / total) ([1]; oral, 100 mg/kg, BIDX 14, from day 7 after implant): 0/10
Tox/Tot (mice which died / total) ([1]; oral, 300 mg/kg, BIDX 14, from day 7 after implant): 5/10
% inhibition of tumor growth ([1]; po, 10 mg/kg, 168 h): 18%
% inhibition of tumor growth ([1]; po, 30 mg/kg, 168 h): 28%
% inhibition of tumor growth ([1]; po, 100 mg/kg, 168 h): 51%
% inhibition of tumor growth ([1]; po, 300 mg/kg, 168 h): 66%
Tox/Tot (mice which died / total) ([2]; oral, 250 mg/kg, BIDX 14, from day 14 after implant): 2/9
% inhibition of tumor growth [2, 6]: TOX
Tox/Tot (mice which died / total) [2, 6]: 9/9
% inhibition of tumor growth ([2]; po, 250 mg/kg, 336 h): 68%
Tox/Tot (mice which died / total) ([3]; IP, 150 mg/kg, DX 8): 1/10
Tox/Tot (mice which died / total) ([3]; IP, 300 mg/kg, DX 8): 6/10
Tox/Tot (mice which died / total) ([3]; IV, 12.5 mg/kg, DX 8): 0/10
Tox/Tot (mice which died / total) ([3]; IV, 25 mg/kg, DX 8): 1/10
inhibition in vivo at 150 mg/kg ([3]; Mus musculus, 6C3HED, ip, read-out: % inhibition of tumor growth, IP, 150 mg/kg, DX 8): 92%
inhibition in vivo at 300 mg/kg ([3]; Mus musculus, 6C3HED, ip, read-out: % inhibition of tumor growth, IP, 300 mg/kg, DX 8): 98%
inhibition in vivo at 12.5 mg/kg ([3]; Mus musculus, 6C3HED, iv, read-out: % inhibition of tumor growth, IV, 12.5 mg/kg, DX 8): 36%
inhibition in vivo at 25 mg/kg ([3]; Mus musculus, 6C3HED, iv, read-out: % inhibition of tumor growth, IV, 25 mg/kg, DX 8): 52%
inhibition in vivo at 50 mg/kg ([3]; Mus musculus, 6C3HED, po, read-out: % inhibition of tumor growth, oral, 50 mg/kg, BIDX 8): 95%
inhibition in vivo at 75 mg/kg ([3]; Mus musculus, 6C3HED, po, read-out: % inhibition of tumor growth, oral, 75 mg/kg, DX 8): 76%
inhibition in vivo at 100 mg/kg ([3]; Mus musculus, 6C3HED, po, read-out: % inhibition of tumor growth, oral, 100 mg/kg, BIDX 8): 96%
inhibition in vivo at 150 mg/kg ([3]; Mus musculus, 6C3HED, po, read-out: % inhibition of tumor growth, oral, 150 mg/kg, DX 8): 74%
inhibition in vivo at 200 mg/kg ([3]; Mus musculus, 6C3HED, po, read-out: % inhibition of tumor growth, oral, 200 mg/kg, BIDX 8): 98%
inhibition in vivo at 300 mg/kg ([3]; Mus musculus, 6C3HED, po, read-out: % inhibition of tumor growth, oral, 300 mg/kg, DX 8): 82%
inhibition in vivo at 400 mg/kg ([3]; Mus musculus, 6C3HED, po, read-out: % inhibition of tumor growth, oral, 400 mg/kg, BIDX 8): 99%
inhibition in vivo at 600 mg/kg ([3]; Mus musculus, 6C3HED, po, read-out: % inhibition of tumor growth, oral, 600 mg/kg, DX 8): 99%
inhibition in vivo at 800 mg/kg ([3]; Mus musculus, 6C3HED, po, read-out: % inhibition of tumor growth, oral, 800 mg/kg, BIDX 8): 99%
inhibition in vivo at 1200 mg/kg ([3]; Mus musculus, 6C3HED, po, read-out: % inhibition of tumor growth, oral, 1200 mg/kg, DX 8): 100%
Tox/Tot (mice which died / total) ([3]; oral, 50 mg/kg, BIDX 8): 0/10
Tox/Tot (mice which died / total) ([3]; oral, 75 mg/kg, DX 8): 0/10
Tox/Tot (mice which died / total) ([3]; oral, 100 mg/kg, BIDX 8): 0/10
% inhibition of tumor growth ([3]; oral, 150 mg/kg, DX 8): 93%
Tox/Tot (mice which died / total) ([3]; oral, 150 mg/kg, DX 8): 0/10
Tox/Tot (mice which died / total) ([3]; oral, 200 mg/kg, BIDX 8): 0/10
% inhibition of tumor growth ([3]; oral, 300 mg/kg, DX 8): 95%
Tox/Tot (mice which died / total) ([3]; oral, 300 mg/kg, DX 8): 0/10
Tox/Tot (mice which died / total) ([3]; oral, 400 mg/kg, BIDX 8): 0/10
Tox/Tot (mice which died / total) ([3]; oral, 600 mg/kg, DX 8): 0/10
Tox/Tot (mice which died / total) ([3]; oral, 800 mg/kg, BIDX 8): 1/10
Tox/Tot (mice which died / total) ([3]; oral, 1200 mg/kg, DX 8): 0/10

CCCCN=S(=O)(NC(=O)Nc1ccc(Cl)cc1)c1ccc(C)cc1 (centres unmarked) [Example 7, N-[[(4-chlorophenyl)amino]carbonyl]-N'-butyl-4-methylbenzenesulfonimidamide]
% inhibition of tumor growth [4]: 0%
Tox/Tot (mice which died / total) [4]: 0/10
inhibition in vivo at 18.75 mg/kg ([3]; Mus musculus, 6C3HED, po, read-out: % inhibition of tumor growth, oral, 18.75 mg/kg, BIDX 10): 21%
inhibition in vivo at 37.5 mg/kg ([3]; Mus musculus, 6C3HED, po, read-out: % inhibition of tumor growth, oral, 37.5 mg/kg, BIDX 10): 45%
inhibition in vivo at 75 mg/kg ([3]; Mus musculus, 6C3HED, po, read-out: % inhibition of tumor growth, oral, 75 mg/kg, BIDX 10): 69%
inhibition in vivo at 150 mg/kg ([3]; Mus musculus, 6C3HED, po, read-out: % inhibition of tumor growth, oral, 150 mg/kg, BIDX 10): 88%
Tox/Tot (mice which died / total) ([3]; oral, 18.75 mg/kg, BIDX 10): 0/10
Tox/Tot (mice which died / total) ([3]; oral, 37.5 mg/kg, BIDX 10): 0/10
Tox/Tot (mice which died / total) ([3]; oral, 75 mg/kg, BIDX 10): 0/10
Tox/Tot (mice which died / total) ([3]; oral, 150 mg/kg, BIDX 10): 0/10

Cc1cc(S(=N)(=O)NC(=O)Nc2ccc(Cl)cc2)cc(C)c1C (centres unmarked) [Example 45, N-[[(4-chlorophenyl)amino]carbonyl]-3,4,5-trimethylbenzenesulfonimidamide]
Tox/Tot (mice which died / total) ([1]; oral, 150 mg/kg, Days 1, 4, 7, 10, from day 7 after implant): 0/9
Tox/Tot (mice which died / total) ([1]; oral, 300 mg/kg, Days 1, 4, 7, 10, from day 7 after implant): 0/10
% inhibition of tumor growth ([1]; po, 150 mg/kg, 168 h): 40%
% inhibition of tumor growth ([1]; po, 300 mg/kg, 168 h): 31%
inhibition in vivo at 9.37 mg/kg ([3]; Mus musculus, 6C3HED, po, read-out: % inhibition of tumor growth, oral, 9.37 mg/kg, Days 1, 3, 5, 7): 78%
inhibition in vivo at 18.75 mg/kg ([3]; Mus musculus, 6C3HED, po, read-out: % inhibition of tumor growth, oral, 18.75 mg/kg, Days 1, 3, 5, 7): 95%
inhibition in vivo at 37.5 mg/kg ([3]; Mus musculus, 6C3HED, po, read-out: % inhibition of tumor growth, oral, 37.5 mg/kg, Days 1, 3, 5, 7): 99%
inhibition in vivo at 75 mg/kg ([3]; Mus musculus, 6C3HED, po, read-out: % inhibition of tumor growth, oral, 75 mg/kg, Days 1, 3, 5, 7): 99%
inhibition in vivo at 150 mg/kg ([3]; Mus musculus, 6C3HED, po, read-out: % inhibition of tumor growth, oral, 150 mg/kg, Days 1, 3, 5, 7): 100%
inhibition in vivo at 300 mg/kg ([3]; Mus musculus, 6C3HED, po, read-out: % inhibition of tumor growth, oral, 300 mg/kg, Days 1, 3, 5, 7): 100%
Tox/Tot (mice which died / total) ([3]; oral, 9.37 mg/kg, Days 1, 3, 5, 7): 0/10
Tox/Tot (mice which died / total) ([3]; oral, 18.75 mg/kg, Days 1, 3, 5, 7): 0/10
Tox/Tot (mice which died / total) ([3]; oral, 37.5 mg/kg, Days 1, 3, 5, 7): 2/10
Tox/Tot (mice which died / total) ([3]; oral, 75 mg/kg, Days 1, 3, 5, 7): 1/10
% inhibition of tumor growth [3, 7]: 99%
Tox/Tot (mice which died / total) [3, 7]: 2/10
Tox/Tot (mice which died / total) ([3]; oral, 300 mg/kg, Days 1, 3, 5, 7): 3/10
